According to patent publication EP2058306A1, “Heteroaryl-substituted 2-pyridinyl-methylamine derivatives” (SCHWARZ PHARMA AG, priority 2007, dated 2009):
Like-named read-outs stand apart in the source and are kept apart here.

What was measured:
5-HT2 = biological target: T1, 5-HT2 (Sus scrofa, UniProt P50129); test: radioligand binding assay, serotonin 5-HT2 receptor, [3H]ketanserin; set-up: species or system porcine
T1 construct: membrane preparations from porcine cortex; from tissue; host or cells: porcine cortex

alpha-1 = test: radioligand binding assay, adrenergic alpha-1 receptor, [3H]prazosin; settings: porcine cortical membranes, mean of two to five experiments in triplicate, read-out: Ki alpha1
Description: (§1) The investigation of receptor binding to the serotonin and adrenergic receptors was done according to a published procedure (Heindl, C. et al., Tetrahedron: Asymmetry (2003), 14, 3141-3152). In detail, for the determination of the binding properties to serotonin receptors membrane preparations from porcine cortex was incubated with the 5-HT1A selective radioligand [^3H]WAY 100635 or with the 5-HT2 selective compound [^3H]ketanserin. The measurement of alpha-1 and alpha-2 receptor binding was achieved when utilizing porcine cortical membranes and the selective radioligands [^3H]prazosin (for alpha-1) and [^3H]RX821002 in an assay similar to that described above.
(§2) The results of the binding experiments are summarized in Table 1 as mean values of two to five individual experiments each done in triplicate and expressed as Ki values in nM.

human 5-HT1A receptor = biological target: T2, human 5-HT1A receptor (Homo sapiens, UniProt P08908); test: [35S]GTPγS assay of functional activity at the 5-HT1A receptor; assay type: biochemical; settings: membranes from CHO cells expressing human 5-HT1A receptor; for 5-HT1A stimulated [35S]GTPγS binding intrinsic effect: % activity of serotonin; for EC50: read-out: 5-HT1A stimulated [35S]GTPγS binding EC50 value
T2 construct: expressed in transfected cells
T2 sequence (P08908 1-422): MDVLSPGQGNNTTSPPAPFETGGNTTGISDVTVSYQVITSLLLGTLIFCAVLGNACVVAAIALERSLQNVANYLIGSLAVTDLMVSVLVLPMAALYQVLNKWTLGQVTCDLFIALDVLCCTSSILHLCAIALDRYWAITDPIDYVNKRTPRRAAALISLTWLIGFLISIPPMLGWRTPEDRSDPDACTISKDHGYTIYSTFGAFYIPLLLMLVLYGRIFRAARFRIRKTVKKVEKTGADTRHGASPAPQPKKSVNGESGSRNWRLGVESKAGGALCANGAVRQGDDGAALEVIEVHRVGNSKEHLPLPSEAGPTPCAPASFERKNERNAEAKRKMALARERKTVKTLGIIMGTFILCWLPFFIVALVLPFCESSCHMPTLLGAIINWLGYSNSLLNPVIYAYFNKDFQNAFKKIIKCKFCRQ
Description: In detail, membranes from CHO (Chinese hamster ovary) cells stably expressing the human 5-HT1A receptor were stimulated with an increasing concentration of test compounds used in a range of subnanomolar to micromolar concentrations in the presence of radioactive [^35S]GTPγ. The amount of bound radioactivity which indicates the amount of stimulation of the receptor was determined after transferring the membranes to filters by scintillation counting. Dose response correlations could be derived and the particular stimulation of the receptor was compared to the maximum effect of the reference compound and physiological ligand serotonin.
Table 2: Intrinsic activities of the compounds of this invention at the serotonin 5-HT1A receptor determined in a [35S]GTPγS assay

human D4.4 = biological target: T3, human D4.4 (Homo sapiens, UniProt P21917); test: radioligand binding assay, dopamine D4.4 receptor, [3H]spiperone; settings: CHO cell membranes, mean of two to five experiments in triplicate, read-out: Ki D4.4
T3 sequence (P21917 1-419): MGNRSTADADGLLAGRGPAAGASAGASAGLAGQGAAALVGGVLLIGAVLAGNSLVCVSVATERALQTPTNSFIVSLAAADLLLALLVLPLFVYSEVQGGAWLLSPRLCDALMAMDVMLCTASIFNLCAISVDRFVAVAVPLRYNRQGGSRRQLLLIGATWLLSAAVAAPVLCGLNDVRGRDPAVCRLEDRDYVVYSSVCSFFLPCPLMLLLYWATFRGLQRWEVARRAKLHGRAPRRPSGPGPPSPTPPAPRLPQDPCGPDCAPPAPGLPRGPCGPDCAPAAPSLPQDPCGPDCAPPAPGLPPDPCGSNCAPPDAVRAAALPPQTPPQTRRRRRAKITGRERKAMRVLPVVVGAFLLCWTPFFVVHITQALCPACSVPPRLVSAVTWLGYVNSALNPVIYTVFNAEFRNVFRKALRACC
Source text: (§3) Biological activity of the compounds has been determined in radioligand binding assays. These experiments have been done according to methods which are described in literature (Hübner, H. et al., J. Med. Chem. (2000), 43, 7562). For the determination of binding affinity to the receptors of the dopamine D2 family membranes were established carrying the human D2long, D2short, D3 or D4.4 receptor subtype stably expressed in Chinese hamster ovary cell lines. In principle, the binding experiments started when incubating an appropriate amount of membrane with the radioligand [^3H]spiperone and the particular test compounds used in a wide range of different concentrations from subnanomolar up to micromolar ones. In the same way, binding affinities of the test compounds to the dopamine D1 receptor were determined when using native membrane preparations from porcine striatum and the D1 selective radioligand [^3H]SCH 23390.
as §2

human D2long, D2short = human D2long, D2short (Homo sapiens, UniProt P14416); test: biochemical; assay type: binding; settings: CHO cell membranes, [3H]spiperone; mean of two to five experiments in triplicate; read-out: Ki D2
Description: as §3, with “These” for “Biological activity of the compounds has been determined in radioligand binding assays. These”, “ones.” for “ones. In the same way, binding affinities of the test compounds to the dopamine D1 receptor were determined when using native membrane preparations from porcine striatum and the D1 selective radioligand [^3H]SCH 23390.”

dopamine D1 receptor = biological target: T4, dopamine D1 receptor (Sus scrofa, UniProt P50130); test: radioligand binding assay, dopamine D1 receptor, [3H]SCH 23390; settings: porcine striatum membranes, mean of two to five experiments in triplicate, read-out: Ki D1
T4 construct: native membrane preparations from porcine striatum; from tissue; host or cells: porcine striatum
Source text: as §3, §2

5-HT1A = biological target: T5, 5-HT1A (Sus scrofa, UniProt A0A4X1UTF5); test: radioligand binding assay, serotonin 5-HT1A receptor, [3H]WAY 100635; settings: porcine cortex membranes, mean of two to five experiments in triplicate, read-out: Ki 5-HT1a
T5 construct: membrane preparations from porcine cortex; from tissue; host or cells: porcine cortex
T5 sequence (A0A4X1UTF5 1-422): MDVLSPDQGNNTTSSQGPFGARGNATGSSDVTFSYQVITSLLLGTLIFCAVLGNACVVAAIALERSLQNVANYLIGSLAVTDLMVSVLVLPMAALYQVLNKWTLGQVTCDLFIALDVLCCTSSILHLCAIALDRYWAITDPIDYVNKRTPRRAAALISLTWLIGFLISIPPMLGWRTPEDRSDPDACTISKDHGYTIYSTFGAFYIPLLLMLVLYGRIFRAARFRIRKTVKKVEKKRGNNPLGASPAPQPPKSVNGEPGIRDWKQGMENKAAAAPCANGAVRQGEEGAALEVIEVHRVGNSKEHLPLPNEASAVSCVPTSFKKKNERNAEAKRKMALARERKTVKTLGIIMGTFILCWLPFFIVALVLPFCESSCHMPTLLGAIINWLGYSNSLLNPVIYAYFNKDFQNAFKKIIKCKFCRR
Description: as §1, §2

human D3 = human D3 (Homo sapiens, UniProt P35462); test: radioligand binding assay, dopamine D3 receptor, [3H]spiperone; settings: CHO cell membranes, mean of two to five experiments in triplicate, read-out: Ki D3
Description: as §3, with “These” for “Biological activity of the compounds has been determined in radioligand binding assays. These”, “ones.” for “ones. In the same way, binding affinities of the test compounds to the dopamine D1 receptor were determined when using native membrane preparations from porcine striatum and the D1 selective radioligand [^3H]SCH 23390.”

[1] = cited from Maurel et al, reference (14); cited from earlier work
[2] = porcine cortex membranes, [3H]ketanserin, mean of two to five experiments in triplicate, read-out: Ki 5-HT2

T4 sequence (P50130 whole entry): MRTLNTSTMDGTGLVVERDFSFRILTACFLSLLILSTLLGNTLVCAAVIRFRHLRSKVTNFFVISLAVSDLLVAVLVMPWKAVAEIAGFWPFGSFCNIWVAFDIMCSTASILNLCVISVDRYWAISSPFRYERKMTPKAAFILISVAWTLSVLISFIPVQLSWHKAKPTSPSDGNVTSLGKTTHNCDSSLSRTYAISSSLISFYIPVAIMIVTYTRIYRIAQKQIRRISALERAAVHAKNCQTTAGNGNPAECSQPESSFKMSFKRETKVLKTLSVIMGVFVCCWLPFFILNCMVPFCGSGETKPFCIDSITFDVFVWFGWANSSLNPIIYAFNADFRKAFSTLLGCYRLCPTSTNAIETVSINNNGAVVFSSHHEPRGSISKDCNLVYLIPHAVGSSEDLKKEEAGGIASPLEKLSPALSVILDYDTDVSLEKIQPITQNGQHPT
T1 sequence (P50129 whole entry): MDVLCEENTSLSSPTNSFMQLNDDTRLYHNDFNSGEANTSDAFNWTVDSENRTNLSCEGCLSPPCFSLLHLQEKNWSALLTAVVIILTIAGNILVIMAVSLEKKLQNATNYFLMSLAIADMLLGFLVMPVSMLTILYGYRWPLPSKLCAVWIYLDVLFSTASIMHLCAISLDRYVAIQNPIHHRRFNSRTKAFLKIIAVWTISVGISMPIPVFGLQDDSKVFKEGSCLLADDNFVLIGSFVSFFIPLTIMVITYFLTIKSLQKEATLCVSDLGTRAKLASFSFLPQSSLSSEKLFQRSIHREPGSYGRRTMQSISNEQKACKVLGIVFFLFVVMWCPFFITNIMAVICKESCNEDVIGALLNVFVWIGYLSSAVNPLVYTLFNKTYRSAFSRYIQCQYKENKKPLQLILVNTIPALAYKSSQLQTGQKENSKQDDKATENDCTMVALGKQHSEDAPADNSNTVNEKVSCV
human D3, sequence (P35462 whole entry): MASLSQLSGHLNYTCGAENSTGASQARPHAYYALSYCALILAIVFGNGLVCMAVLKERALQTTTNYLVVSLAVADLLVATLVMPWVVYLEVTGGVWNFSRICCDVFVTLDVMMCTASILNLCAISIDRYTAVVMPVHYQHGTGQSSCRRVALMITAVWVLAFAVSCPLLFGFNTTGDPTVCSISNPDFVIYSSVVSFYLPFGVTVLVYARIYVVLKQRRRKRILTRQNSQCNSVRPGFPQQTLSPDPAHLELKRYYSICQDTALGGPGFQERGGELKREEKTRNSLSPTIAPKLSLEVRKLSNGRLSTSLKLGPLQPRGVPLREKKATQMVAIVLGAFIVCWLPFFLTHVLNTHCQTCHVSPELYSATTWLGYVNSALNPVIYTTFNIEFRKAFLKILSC
human D2long, D2short, sequence (P14416 whole entry): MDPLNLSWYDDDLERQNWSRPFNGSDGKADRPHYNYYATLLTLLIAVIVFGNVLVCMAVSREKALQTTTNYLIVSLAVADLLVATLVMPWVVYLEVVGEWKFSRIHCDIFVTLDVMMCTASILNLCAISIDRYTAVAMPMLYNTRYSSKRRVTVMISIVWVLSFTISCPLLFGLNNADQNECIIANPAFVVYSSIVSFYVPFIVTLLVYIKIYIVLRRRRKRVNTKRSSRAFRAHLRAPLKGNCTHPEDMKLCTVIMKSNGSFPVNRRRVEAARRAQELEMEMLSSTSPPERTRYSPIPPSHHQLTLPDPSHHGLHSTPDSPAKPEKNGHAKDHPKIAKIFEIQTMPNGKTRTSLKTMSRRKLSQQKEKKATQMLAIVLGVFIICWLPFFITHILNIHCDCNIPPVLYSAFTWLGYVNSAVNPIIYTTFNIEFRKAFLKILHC

Row | SMILES | Ki (5-HT2; [2]) [µM] | Ki (alpha-1) [µM] | 5-HT1A stimulated [35S]GTPγS binding intrinsic effect (human 5-HT1A receptor) | EC50 (human 5-HT1A receptor) [µM] | Ki (human D4.4) [µM] | Ki (human D2long, D2short) [µM] | Ki (dopamine D1 receptor) [µM] | Ki (5-HT1A) [µM] | Ki (human D3) [µM] | Ki (5-HT2) [µM] | half-life elimination from plasma [1] [h]
1 | Cc1ccc(CNCC2(F)CCN(C(=O)c3cccs3)CC2)nc1 [Example E1] | > 5 | > 5 | D (D=full agonist (>75%)) | < 0.05 | > 5 | > 5 | > 5 | < 0.05 | > 5 |  | 
2 | Cc1ccc(CNCC2(F)CCN(C(=O)c3sccc3Cl)CC2)nc1 [Example E3, 3-Chlorothien-2-yl-[4-fluoro-4-[[(5-methylpyridin-2-ylmethyl)amino]methyl]-piperidin-1-yl]-methanone] | > 5 | 0.501 to 5 | D (D=full agonist (>75%)) | < 0.05 | 0.501 to 5 | > 5 | > 5 | < 0.05 | > 5 |  | 
3 | Cc1ccc(CNCC2(F)CCN(C(=O)c3ccc(Cl)s3)CC2)nc1 [Example E4, 5-Chlorothien-2-yl-[4-fluoro-4-[[(5-methylpyridin-2-ylmethyl)amino]methyl]-piperidin-1-yl]-methanone] | > 5 | 0.501 to 5 | D (D=full agonist (>75%)) | < 0.05 | 0.501 to 5 | > 5 | > 5 | < 0.05 | > 5 |  | 
4 | Cc1ccc(CNCC2(F)CCN(C(=O)c3sccc3Br)CC2)nc1 [Example E5, 3-Bromothien-2-yl-[4-fluoro-4-[[(5-mothylpyridin-2-ylmethyl)amino]mothyl]-piperidin-1-yl]-methanone] |  | 0.501 to 5 | D (D=full agonist (>75%)) | < 0.05 | 0.501 to 5 | > 5 | > 5 | < 0.05 | > 5 | > 5 | 
5 | Cc1ccc(CNCC2(F)CCN(C(=O)c3cc(Br)cs3)CC2)nc1 [Example E6, 4-Bromothien-2-yl-[4-fluoro-4-[[(5-methylpyridin-2-ylmethyl)amino]methyl]-piperidin-1-yl]-methanone] | > 5 | 0.501 to 5 | D (D=full agonist (>75%)) | < 0.05 | 0.501 to 5 | > 5 | > 5 | < 0.05 | > 5 |  | 
6 | Cc1ccc(CNCC2(F)CCN(C(=O)c3ccc(Br)s3)CC2)nc1 [Example E7, 5-Bromothion-2-yl-[4-fluoro-4-[[(5-mothylpyridin-2-ylmethyl)amino]methyl]-piperidin-1-yl]-methanone] |  | 0.501 to 5 | D (D=full agonist (>75%)) | < 0.05 | 0.501 to 5 | > 5 | > 5 | < 0.05 | > 5 | > 5 | 
7 | Cc1ccc(CNCC2(F)CCN(C(=O)c3sccc3C)CC2)nc1 [Example E9, [4-Fluoro-4-[[(5-methylpyridin-2-ylmethyl)amino]methyl]piperidin-1-yl]-3-methylthien-2-yl-methanone] | > 5 | > 5 | D (D=full agonist (>75%)) | < 0.05 | > 5 | > 5 | > 5 | < 0.05 | > 5 |  | 
8 | Cc1ccc(CNCC2(F)CCN(C(=O)c3cc(C)cs3)CC2)nc1 [Example E10, [4-Fluoro-4-[[(5-methylpyridin-2-ylmethyl)amino]methyl]piparidin-1-yl]-4-methylthien-2-yl-mothanone] |  | 0.501 to 5 | D (D=full agonist (>75%)) | < 0.05 | 0.501 to 5 | > 5 | > 5 | < 0.05 | > 5 | > 5 | 
9 | Cc1ccc(CNCC2(F)CCN(C(=O)c3ccc(C)s3)CC2)nc1 [Example E11, [4-Fluoro-4-[[(5-methylpyridin-2-ylmethyl)amino]methyl]piperidin-1-yl]-5-mothylthiophon-2-yl-mothanone] |  | > 5 | D (D=full agonist (>75%)) | < 0.05 | 0.501 to 5 | > 5 | > 5 | < 0.05 | > 5 | > 5 | 
10 | Cc1ccc(CNCC2(F)CCN(C(=O)c3ccsc3)CC2)nc1 [Example E18, [4-Fluoro-4-[[(5-methylpyridin-2-ylmethyl)amino]methyl]piperidin-1-yl]-thien-3-yl-methanone] | > 5 | > 5 | D (D=full agonist (>75%)) | < 0.05 | > 5 | > 5 | > 5 | < 0.05 | > 5 |  | 
11 | Cc1ccc(CNCC2(F)CCN(C(=O)c3ccc(F)c(Cl)c3)CC2)nc1 [Example F13640, reference compound] |  |  | D (D=full agonist (>75%)) |  |  |  |  |  |  |  | 35
